In brackets after ≈: the same amount, converted by molar mass. Activity calls are given as the source filed them. The rule behind the calls is not given here.
Experiments:
[1] = system: Brassica oleracea var. capitata; assay: Phytotoxicity in Brassica oleracea var. capitata (cabbage) after compound application for 1 hr through two-tier reduced pressure fumigation at 30 mmHg for 0.5 hr and then 760 mmHg for 1.5 hr at 23 +/- 1 degC; type: organism-based; settings: in vivo
Vitis vinifera [2] = assay: (§1) Phytotoxicity in Vitis vinifera assessed as induction of olfactory damage after compound application for 1 hr through two-tier reduced pressure fumigation at 30 mmHg for 0.5 hr and then 760 mmHg for 1.5 hr at 23 +/- 1 degC; type: organism-based; settings: in vivo
[3] = system: Brassica oleracea var. italica; assay: Phytotoxicity in Brassica oleracea var. italica assessed as induction of olfactory damage after compound application for 1 hr through two-tier reduced pressure fumigation at 30 mmHg for 0.5 hr and then 760 mmHg for 1.5 hr at 23 +/- 1 degC; type: organism-based; settings: in vivo
Malus domestica [4] = assay: Phytotoxicity in Malus x domestica (apple) assessed as induction of olfactory damage after compound application for 1 hr through two-tier reduced pressure fumigation at 30 mmHg for 0.5 hr and then 760 mmHg for 1.5 hr at 23 +/- 1 degC; type: organism-based; settings: in vivo
Lactuca sativa [5] = assay: Phytotoxicity in naked Lactuca sativa (lettuce) assessed as change in visual quality after compound application through two-tier reduced pressure fumigation at 30 mmHg for 0.5 hr and then 760 mmHg for 1.5 hr at 23 +/- 1 degC after 2 hr; type: organism-based; settings: in vivo
Oryza sativa [6] = assay: Phytotoxicity in Oryza sativa (rice) assessed as induction of olfactory damage after compound application for 1 hr through two-tier reduced pressure fumigation at 30 mmHg for 0.5 hr and then 760 mmHg for 1.5 hr at 23 +/- 1 degC; type: organism-based; settings: in vivo
Lactuca sativa [7] = assay: Phytotoxicity in naked Lactuca sativa (lettuce) assessed as induction of olfactory damage after compound application for 1 hr through two-tier reduced pressure fumigation at 30 mmHg for 0.5 hr and then 760 mmHg for 1.5 hr at 23 +/- 1 degC; type: organism-based; settings: in vivo
Persea americana [8] = assay: Phytotoxicity in Persea americana (avocado) assessed as induction of olfactory damage after compound application for 1 hr through two-tier reduced pressure fumigation at 30 mmHg for 0.5 hr and then 760 mmHg for 1.5 hr at 23 +/- 1 degC; type: organism-based; settings: in vivo
Vitis vinifera [9] = assay: as §1; type: organism-based; settings: in vivo; remark: listed apart in the source
Myzus persicae [10] = assay: Insecticidal activity against Myzus persicae (green peach aphid) infested naked lettuce applied for 1 hr through two-tier reduced pressure fumigation at 30 mmHg for 0.5 hr and then 760 mmHg for 1.5 hr at 23 +/- 1 degC measured 24 hr; type: functional, organism-based
Myzus persicae [11] = assay: Insecticidal activity against Myzus persicae (green peach aphid) placed under third leaf of naked Iceburg lettuce heads and after compound application for 2 hr through two-tier reduced pressure fumigation at 30 mmHg for 0.5 hr and then 760 mmHg for 1.5 hr at 23 +/- 1 degC measured after 24 hr; type: functional; settings: for LC50: Myzus persicae, read-out: LD50 (the source's name)
Pseudococcus viburni = assay: Insecticidal activity against Pseudococcus viburni; type: functional, organism-based
Tetranychus urticae = assay: Insecticidal activity against Tetranychus urticae (two-spotted spider mite); type: functional, organism-based
Pseudococcus affinis = assay: Insecticidal activity against Pseudococcus affinis; type: functional, organism-based
Lactuca sativa [12] = assay: Phytotoxicity in wrapped Lactuca sativa (lettuce) assessed as induction of olfactory damage after compound application for 1 hr through two-tier reduced pressure fumigation at 30 mmHg for 0.5 hr and then 760 mmHg for 1.5 hr at 23 +/- 1 degC; type: organism-based; settings: in vivo
Lactuca sativa [13] = assay: Phytotoxicity in naked Lactuca sativa (lettuce) assessed as residual aldehyde odor after compound application through two-tier reduced pressure fumigation at 30 mmHg for 0.5 hr and then 760 mmHg for 1.5 hr at 23 +/- 1 degC after 2 hr; type: organism-based; settings: in vivo
[14] = system: Brassica oleracea var. italica; assay: Phytotoxicity in Brassica oleracea var. italica after compound application for 1 hr through two-tier reduced pressure fumigation at 30 mmHg for 0.5 hr and then 760 mmHg for 1.5 hr at 23 +/- 1 degC; type: organism-based; settings: in vivo
Persea americana [15] = assay: Phytotoxicity in Persea americana (avocado) assessed as induction of visual damage after compound application for 1 hr through two-tier reduced pressure fumigation at 30 mmHg for 0.5 hr and then 760 mmHg for 1.5 hr at 23 +/- 1 degC; type: organism-based; settings: in vivo
Vitis vinifera [16] = assay: (§2) Phytotoxicity in Vitis vinifera assessed as induction of visual damage after compound application for 1 hr through two-tier reduced pressure fumigation at 30 mmHg for 0.5 hr and then 760 mmHg for 1.5 hr at 23 +/- 1 degC; type: organism-based; settings: in vivo
[17] = system: Frankliniella occidentalis; assay: Insecticidal activity against Frankliniella occidentalis (western flower thrips); type: functional, organism-based
Myzus persicae [18] = assay: Insecticidal activity against Myzus persicae (green peach aphid) infested wrapped lettuce applied for 1 hr through two-tier reduced pressure fumigation at 30 mmHg for 0.5 hr and then 760 mmHg for 1.5 hr at 23 +/- 1 degC measured 24 hr; type: functional, organism-based
Bemisia = assay: Insecticidal activity against Bemisia sp.; type: functional, organism-based
Citrus x paradisi [19] = assay: Phytotoxicity in Citrus x paradisi (grape fruit) assessed as induction of visual damage after compound application for 1 hr through two-tier reduced pressure fumigation at 30 mmHg for 0.5 hr and then 760 mmHg for 1.5 hr at 23 +/- 1 degC; type: organism-based; settings: in vivo
Lactuca sativa [20] = assay: Phytotoxicity in naked Lactuca sativa (lettuce) after compound application for 1 hr through two-tier reduced pressure fumigation at 30 mmHg for 0.5 hr and then 760 mmHg for 1.5 hr at 23 +/- 1 degC; type: organism-based; settings: in vivo
Lactuca sativa [21] = assay: Phytotoxicity in naked Lactuca sativa (lettuce) assessed as change in visual quality after compound application for 1 hr through two-tier reduced pressure fumigation at 30 mmHg for 0.5 hr and then 760 mmHg for 1.5 hr at 23 +/- 1 degC; type: organism-based; settings: in vivo
Malus domestica [22] = assay: Phytotoxicity in Malus x domestica (apple) assessed as induction of visual damage after compound application for 1 hr through two-tier reduced pressure fumigation at 30 mmHg for 0.5 hr and then 760 mmHg for 1.5 hr at 23 +/- 1 degC; type: organism-based; settings: in vivo
Vitis vinifera [23] = assay: as §2; type: organism-based; settings: in vivo; remark: listed apart in the source
Citrus x paradisi [24] = assay: Phytotoxicity in Citrus x paradisi (grape fruit) assessed as induction of olfactory damage after compound application for 1 hr through two-tier reduced pressure fumigation at 30 mmHg for 0.5 hr and then 760 mmHg for 1.5 hr at 23 +/- 1 degC; type: organism-based; settings: in vivo
[25] = system: Brassica oleracea var. capitata; assay: Phytotoxicity in Brassica oleracea var. capitata (cabbage) assessed as induction of olfactory damage after compound application for 1 hr through two-tier reduced pressure fumigation at 30 mmHg for 0.5 hr and then 760 mmHg for 1.5 hr at 23 +/- 1 degC; type: organism-based; settings: in vivo
Brevicoryne brassicae = assay: Insecticidal activity against Brevicoryne brassicae (cabbage aphids); type: functional, organism-based
[26] = system: Frankliniella occidentalis; assay: Insecticidal activity against Frankliniella occidentalis (western flower thrips) larva and adults; type: functional
Thysanoptera = assay: Insecticidal activity Thysanoptera (thrips) on flower bulbs; type: functional
Myzus persicae [27] = assay: Insecticidal activity Myzus persicae (green peach aphid) on flower bulbs; type: functional
Acari = assay: Insecticidal activity mites on flower bulbs; type: functional
Myzus persicae [28] = assay: Insecticidal activity against Myzus persicae (green peach aphid) applied through atmospheric pressure fumigation at 760 mmHg for 2 hr at 23 +/- 1 degC; type: functional; settings: read-out: LD50 (the source's name)
Myzus persicae [29] = assay: Potentiation factor, ratio of LD50 for Myzus persicae (green peach aphid) applied through atmospheric pressure fumigation at 760 mmHg for 2 hr at 23 +/- 1 degC to LD50 for Myzus persicae (green peach aphid) applied through two-tier reduced pressure fumigation at 30 mmHg for 0.5 hr and then 760 mmHg for 1.5 hr at 23 +/- 1 degC; type: functional
Myzus persicae [30] = assay: Insecticidal activity against Myzus persicae (green peach aphid) applied through two-tier reduced pressure fumigation at 30 mmHg for 0.5 hr and then 760 mmHg for 1.5 hr at 15 degC; type: functional; settings: read-out: LD50 (the source's name)
Myzus persicae [31] = assay: Insecticidal activity against Myzus persicae (green peach aphid) applied through two-tier reduced pressure fumigation at 30 mmHg for 0.5 hr and then 760 mmHg for 1.5 hr at 23 +/- 1 degC; type: functional; settings: for LC50: Myzus persicae, read-out: LD50 (the source's name)
[32] = system: Brassica oleracea var. italica; assay: Phytotoxicity in Brassica oleracea var. italica assessed as induction of visual damage after compound application for 1 hr through two-tier reduced pressure fumigation at 30 mmHg for 0.5 hr and then 760 mmHg for 1.5 hr at 23 +/- 1 degC; type: organism-based; settings: in vivo
Lactuca sativa [33] = assay: Phytotoxicity in wrapped Lactuca sativa (lettuce) assessed as induction of visual damage after compound application for 1 hr through two-tier reduced pressure fumigation at 30 mmHg for 0.5 hr and then 760 mmHg for 1.5 hr at 23 +/- 1 degC; type: organism-based; settings: in vivo
Oryza sativa [34] = assay: Phytotoxicity in Oryza sativa (rice) assessed as induction of visual damage after compound application for 1 hr through two-tier reduced pressure fumigation at 30 mmHg for 0.5 hr and then 760 mmHg for 1.5 hr at 23 +/- 1 degC; type: organism-based; settings: in vivo
Phaseolus vulgaris = assay: PhytoToxicity in Phaseolus vulgaris (beans) assessed as induction of visual damage after compound application for 1 hr through two-tier reduced pressure fumigation at 30 mmHg for 0.5 hr and then 760 mmHg for 1.5 hr at 23 +/- 1 degC; type: organism-based; settings: in vivo, other
Citrus limon = assay: Phytotoxicity in Citrus limon (lemon) assessed as induction of olfactory damage after compound application for 1 hr through two-tier reduced pressure fumigation at 30 mmHg for 0.5 hr and then 760 mmHg for 1.5 hr at 23 +/- 1 degC; type: organism-based; settings: citrus x limon, in vivo
[35] = system: Brassica oleracea var. capitata; assay: Phytotoxicity in Brassica oleracea var. capitata (cabbage) assessed as induction of visual damage after compound application for 1 hr through two-tier reduced pressure fumigation at 30 mmHg for 0.5 hr and then 760 mmHg for 1.5 hr at 23 +/- 1 degC; type: organism-based; settings: in vivo
Citrus sinensis = assay: Phytotoxicity in Citrus sinensis (orange) assessed as induction of olfactory damage after compound application for 1 hr through two-tier reduced pressure fumigation at 30 mmHg for 0.5 hr and then 760 mmHg for 1.5 hr at 23 +/- 1 degC; type: organism-based; settings: in vivo

Structure (SMILES)	Activity [1]	Activity (Vitis vinifera [2])	Activity (Malus domestica [4])	Activity (Lactuca sativa [5])	Activity (Lactuca sativa [7])	Activity (Vitis vinifera [9])	Activity (Myzus persicae [10])	CTP (Myzus persicae [11]) [mg/L.hr]	LD90 (Myzus persicae [11]) [mg/L]	LC50 (Myzus persicae [11]) [µg/mL]	Activity (Pseudococcus viburni)	Activity (Tetranychus urticae)	Activity (Pseudococcus affinis)	Activity (Lactuca sativa [13])	Activity [14]	Activity (Persea americana [15])	Activity [17]	Activity (Myzus persicae [18])	Activity (Bemisia)	Activity (Brevicoryne brassicae)	further results
C/C=C(\C)C=O [2-methyl-(E)-2-butenal]	Toxic	Non-toxic	Non-toxic	Toxic	Toxic	Non-toxic	Active	310	123.6	76.6 (≈ 911 µM)	Active	inactive	Active	Toxic	Toxic	Non-toxic	Active	Active	Active	inactive	Activity [3]: Toxic; Activity (Oryza sativa [6]): Toxic; Activity (Persea americana [8]): Non-toxic; Activity (Lactuca sativa [12]): Toxic; Activity (Vitis vinifera [16]): Non-toxic; Activity (Citrus x paradisi [19]): Non-toxic; Activity (Lactuca sativa [20]): Toxic; Activity (Lactuca sativa [21]): Toxic; Activity (Malus domestica [22]): Non-toxic; Activity (Vitis vinifera [23]): Non-toxic; Activity (Citrus x paradisi [24]): Non-toxic; Activity [25]: Toxic
CBr [BROMOMETHANE]																					CTP [26]: 25 mg/L.hr; CTP (Thysanoptera): 100 mg/L.hr; CTP (Myzus persicae [27]): 100 mg/L.hr; CTP (Acari): 100 mg/L.hr
CCCC=O [BUTANAL]				Toxic					177.5	130 (≈ 1800 µM)	Active	inactive	Active	Toxic			Active		Active	inactive	LC50 (Myzus persicae [28]): 26.1 µg/mL (≈ 362 µM); Ratio (Myzus persicae [29]): 2.4; LC50 (Myzus persicae [30]): 31 µg/mL (≈ 430 µM); CTP (Myzus persicae [31]): 21.6 mg/L.hr; LC50 (Myzus persicae [31]): 10.8 µg/mL (≈ 150 µM)
CCCCCCC=O [HEPTANAL]																					LC50 (Myzus persicae [28]): 15 µg/mL (≈ 131 µM); Ratio (Myzus persicae [29]): 3; LC50 (Myzus persicae [31]): 5 µg/mL (≈ 43.8 µM)
CC/C=C/C=O [PENTENAL]	Toxic	Non-toxic	Non-toxic	Toxic	Toxic	Non-toxic	Active	106	25.8	13.1 (≈ 156 µM)	Active	inactive	Active	Toxic	Toxic	Toxic	Active	Active	Active	inactive	Activity [32]: Toxic; Activity (Lactuca sativa [33]): Toxic; Activity (Oryza sativa [34]): Toxic; Activity (Phaseolus vulgaris): Toxic; Activity (Citrus limon): Non-toxic; Activity (Citrus x paradisi [19]): Toxic; Activity (Lactuca sativa [20]): Toxic; Activity [35]: Toxic; Activity (Citrus sinensis): Non-toxic

From ChEMBL document CHEMBL3046689, “Volatile aldehydes are promising broad-spectrum postharvest insecticides” (J Agric Food Chem, 2000)
